According to patent publication US8580825B2, “Oxadiazole inhibitors of leukotriene production” (Boehringer Ingelheim International GmbH, priority 2010, dated 2013):

Key:
[1] = system: synthesis of LTB4 in human whole blood; assay: human whole blood LTB4 production inhibition assay; format: cell-based; conditions: calcimycin stimulated, read-out: hWB LTB4 IC50
Outline: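 Heparinized human whole blood preincubated with compound 15 min at 37 °C, then stimulated with calcimycin (20 μM final) for 30 min at 37 °C. Plasma LTB4 measured after low-speed centrifugation by antibody-based homogeneous time-resolved fluorescence.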

[2] = target: T1, recombinant human FLAP protein (Homo sapiens, UniProt P20292); assay: FLAP binding assay (Scintillation Proximity Assay, displacement of [125I]L-691,831); conditions: read-out: FLAP SPA IC50
T1 construct: made in house; host or cells: Sf9 insect cells (100,000xg membrane fraction used)
T1 sequence (P20292 1-161): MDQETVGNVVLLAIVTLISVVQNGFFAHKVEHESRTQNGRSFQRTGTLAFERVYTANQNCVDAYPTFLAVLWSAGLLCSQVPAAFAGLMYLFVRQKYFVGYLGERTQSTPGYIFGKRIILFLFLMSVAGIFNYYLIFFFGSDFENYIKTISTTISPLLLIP
Outline: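 Scintillation proximity displacement of [125I]L-691,831 (0.08 nM) from membranes of sf9 cells expressing recombinant human FLAP (5 μg/well) on WGA SPA beads, pH 7.5 Tris buffer. Plates shaken 2 h before counting. Non-specific binding defined with 10 μM unlabelled L-691,831.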

IC50 [1] [nM]	IC50 [2] [nM]	SMILES
33	6.4	CC(C)[C@](C)(c1ccc(-c2cnc(N)nc2)nc1)c1noc(-c2cnn(CC(C)(C)O)c2)n1 [Example 38, 1-[4-(3-{(2R)-2-[6-(2-aminopyrimidin-5-yl)pyridin-3-yl]-3-methylbutan-2-yl}-1,2,4-oxadiazol-5-yl)-1H-pyrazol-1-yl]-2-methylpropan-2-ol]
180	14.4	CC(C)C(C)(c1ccc(-c2cnc(N)nc2)nc1)c1noc(-c2cnn(CC(=O)N(C)C)c2)n1 (stereo not drawn) [Example 7, 2-[4-(3-{2-[6-(2-aminopyrimidin-5-yl)pyridin-3-yl]-3-methylbutan-2-yl}-1,2,4-oxadiazol-5-yl)-1H-pyrazol-1-yl]-N,N-dimethylacetamide]
2000	180	COCCOCCn1cc(-c2nc([C@](C)(c3ccc(-c4cnc(N)nc4)nc3)C(C)C)no2)cn1 [Example 47, 5-{5-[(2S)-2-(5-{1-[2-(2-methoxyethoxy)ethyl]-1H-pyrazol-4-yl}-1,2,4-oxadiazol-3-yl)-3-methylbutan-2-yl]pyridin-2-yl}pyrimidin-2-amine]
12	1.4	CC(C)[C@](C)(c1ccc(-c2cnc(N)nc2)nc1)c1noc(-c2cnn(C3COC3)c2)n1 [Example 31, 5-{5-[(2R)-3-methyl-2-{5-[1-(oxetan-3-yl)-1H-pyrazol-4-yl]-1,2,4-oxadiazol-3-yl}butan-2-yl]pyridin-2-yl}pyrimidin-2-amine]
39	3.9	COCCn1cc(-c2nc([C@@](C)(c3ccc(-c4cnc(N)nc4)nc3)C(C)C)no2)cn1 [Example 23, 5-{5-[(2R)-2-{5-[1-(2-methoxyethyl)-1H-pyrazol-4-yl]-1,2,4-oxadiazol-3-yl}-3-methylbutan-2-yl]pyridin-2-yl}pyrimidin-2-amine]
68	6.3	COCCn1cc(-c2nc(C(C)(c3ccc(-c4cnc(N)nc4)nc3)C(C)C)no2)cn1 (stereo not drawn) [Example 8, 5-[5-(2-{5-[1-(2-methoxyethyl)-1H-pyrazol-4-yl]-1,2,4-oxadiazol-3-yl}-3-methylbutan-2-yl)pyridin-2-yl]pyrimidin-2-amine]
190	32	CC(C)[C@](C)(c1ccc(-c2cnc(N)nc2)nc1)c1noc(-c2cnn(CC(=O)N3CCOCC3)c2)n1 [Example 151, 2-[4-(3-{(R)-1-[6-(2-Amino-pyrimidin-5-yl)-pyridin-3-yl]-1,2-dimethyl-propyl}-1,2,4-oxadiazol-5-yl)-pyrazol-1-yl]-1-morpholin-4-yl-ethanone]
990	170	COCCn1cc(-c2nc([C@](C)(c3ccc(-c4cnc(N)nc4)nc3)C(C)C)no2)cn1 [Example 24, 5-{5-[(2S)-2-{5-[1-(2-methoxyethyl)-1H-pyrazol-4-yl]-1,2,4-oxadiazol-3-yl}-3-methylbutan-2-yl]pyridin-2-yl}pyrimidin-2-amine]
> 5000	520	CC(C)C(C)(c1ccc(-c2cnc(N)nc2)nc1)c1noc(NCCO)n1 (stereo not drawn) [Example 25, 2-[(3-{2-[6-(2-aminopyrimidin-5-yl)pyridin-3-yl]-3-methylbutan-2-yl}-1,2,4-oxadiazol-5-yl)amino]ethanol]
45	6.5	CC(C)C(C)(c1ccc(-c2cnc(N)nc2)nc1)c1noc(-c2cnn(CC(F)F)c2)n1 (stereo not drawn) [Example 14, 5-[5-(2-{5-[1-(2,2-difluoroethyl)-1H-pyrazol-4-yl]-1,2,4-oxadiazol-3-yl}-3-methylbutan-2-yl)pyridin-2-yl]pyrimidin-2-amine]
60	4.9	COCCNc1cnc(-c2nc(C(C)(c3ccc(-c4cnc(N)nc4)nc3)C(C)C)no2)cn1 (stereo not drawn) [Example 10, 5-{5-[2-(5-{5-[(2-methoxyethyl)amino]pyrazin-2-yl}-1,2,4-oxadiazol-3-yl)-3-methylbutan-2-yl]pyridin-2-yl}pyrimidin-2-amine]
55	3.6	CCNc1cnc(-c2nc(C(C)(c3ccc(-c4cnc(N)nc4)nc3)C(C)C)no2)cn1 (stereo not drawn) [Example 12, 5-[5-(2-{5-[5-(ethylamino)pyrazin-2-yl]-1,2,4-oxadiazol-3-yl}-3-methylbutan-2-yl)pyridin-2-yl]pyrimidin-2-amine]
71	7.5	COCCNc1ccc(-c2nc(C(C)(c3ccc(-c4cnc(N)nc4)nc3)C(C)C)no2)nn1 (stereo not drawn) [Example 27, 6-(3-{2-[6-(2-aminopyrimidin-5-yl)pyridin-3-yl]-3-methylbutan-2-yl}-1,2,4-oxadiazol-5-yl)-N-(2-methoxyethyl)pyridazin-3-amine]
440	26.4	Cc1ccc(-c2nc(C(C)(c3ccc(-c4cnc(N)nc4)nc3)C(C)C)no2)cn1 (stereo not drawn) [Example 72, 5-(5-{3-methyl-2-[5-(6-methylpyridin-3-yl)-1,2,4-oxadiazol-3-yl]butan-2-yl}pyridin-2-yl)pyrimidin-2-amine]
83	2.7	COCCN(C)c1cnc(-c2nc(C(C)(c3ccc(-c4cnc(N)nc4)nc3)C(C)C)no2)cn1 (stereo not drawn) [Example 18, 5-{5-[2-(5-{5-[(2-methoxyethyl)(methyl)amino]pyrazin-2-yl}-1,2,4-oxadiazol-3-yl)-3-methylbutan-2-yl]pyridin-2-yl}pyrimidin-2-amine]
790	140	Cn1cc(-c2nc(C(C)(C)c3ccc(-c4cnc(N)nc4)nc3)no2)cn1 [Example 86, 5-(5-{2-[5-(1-methyl-1H-pyrazol-4-yl)-1,2,4-oxadiazol-3-yl]propan-2-yl}pyridin-2-yl)pyrimidin-2-amine]

More lines, now with the values behind:

SMILES	IC50 [1] [nM]	IC50 [2] [nM]
C[C@@](c1ccc(-c2cnc(N)nc2)nc1)(c1noc(-c2cnc(N3CCNCC3)cn2)n1)C1CC1 [Example 134, 5-(5-{(R)-1-Cyclopropyl-1-[5-(3,4,5,6-tetrahydro-2H-[1,2′]bipyrazinyl-5′-yl)-[1,2,4]oxadiazol-3-yl]-ethyl}-pyridin-2-yl)-pyrimidin-2-ylamine]	310	7.2
CC(C)(O)Cn1cc(-c2nc([C@](C)(c3ccc(-c4cnc(N)c(F)c4)nc3)C3CC3)no2)cn1 [Example 178, 1-(4-{3-[(S)-1-(6′-Amino-5′-fluoro-[2,3′]bipyridinyl-5-yl)-1-cyclopropyl-ethyl]-[1,2,4]oxadiazol-5-yl}-pyrazol-1-yl)-2-methyl-propan-2-ol]	2350	2000
Cn1cc(-c2nc(C(C)(c3ccc(-c4cnc(N)nc4)nc3)C3CC3)no2)cn1 (stereo not drawn) [Example 50, 5-(5-{1-cyclopropyl-1-[5-(1-methyl-1H-pyrazol-4-yl)-1,2,4-oxadiazol-3-yl]ethyl}pyridin-2-yl)pyrimidin-2-amine]	110	9.5
CC(C)(O)Cn1cc(-c2nc([C@](C)(c3ccc(-c4ccc(N)nc4)nc3)C3CC3)no2)cn1 [Example 109, 1-(4-{3-[(S)-1-(6′-Amino-[2,3′]bipyridinyl-5-yl)-1-cyclopropyl-ethyl]-[1,2,4]oxadiazol-5-yl}-pyrazol-1-yl)-2-methyl-propan-2-ol]	1100	350
C[C@](c1ccc(-c2ccc(N)nc2)nc1)(c1noc(-c2cnn(C3COC3)c2)n1)C1CC1 [Example 116, 5-{(S)-1-Cyclopropyl-1-[5-(1-oxetan-3-yl-1H-pyrazol-4-yl)-[1,2,4]oxadiazol-3-yl]-ethyl}-[2,3′]bipyridinyl-6′-ylamine]	2000	360
CC(c1ccc(-c2cnc(N)nc2)nc1)(c1noc(-c2cnn(C3COC3)c2)n1)C1CC1 (stereo not drawn) [Example 63, 5-[5-(1-cyclopropyl-1-{5-[1-(oxetan-3-yl)-1H-pyrazol-4-yl]-1,2,4-oxadiazol-3-yl}-ethyl)pyridin-2-yl]pyrimidin-2-amine]	29	8.7
COCCn1cc(-c2nc([C@](C)(c3ccc(-c4cnc(N)cn4)nc3)C3CC3)no2)cn1 [Example 127, 5-[5-((S)-1-Cyclopropyl-1-{5-[1-(2-methoxy-ethyl)-1H-pyrazol-4-yl]-[1,2,4]oxadiazol-3-yl}-ethyl)-pyridin-2-yl]-pyrazin-2-ylamine]	410	220
CC(C)(O)Cn1cc(-c2nc([C@@](C)(c3ccc(-c4cnc(N)c(C#N)n4)nc3)C3CC3)no2)cn1 [Example 164, 3-Amino-6-[5-((R)-1-cyclopropyl-1-{5-[1-(2-hydroxy-2-methyl-propyl)-1H-pyrazol-4-yl]-[1,2,4]oxadiazol-3-yl}-ethyl)-pyridin-2-yl]-pyrazine-2-carbonitrile]	97	40
CC(C)[C@](C)(c1ccc(-c2cnc(N)[nH]c2=O)nc1)c1noc(-c2cnn(CC(C)(C)O)c2)n1 [Example 119, 2-Amino-5-[5-((R)-1-{5-[1-(2-hydroxy-2-methyl-propyl)-1H-pyrazol-4-yl]-[1,2,4]oxadiazol-3-yl}-1,2-dimethyl-propyl)-pyridin-2-yl]-3H-pyrimidin-4-one]	2200	3.4
CN(C)CCn1cc(-c2nc([C@](C)(c3ccc(-c4cnc(N)cn4)nc3)C3CC3)no2)cn1 [Example 125, 5-[5-((S)-1-Cyclopropyl-1-{5-[1-(2-dimethylamino-ethyl)-1H-pyrazol-4-yl]-[1,2,4]oxadiazol-3-yl}-ethyl)-pyridin-2-yl]-pyrazin-2-ylamine]	370	120
CC(C)(O)Cn1cc(-c2nc([C@](C)(c3ccc(-c4cnc(N)cn4)nc3)C3CC3)no2)cn1 [Example 101, 1-[4-(3-{(S)-1-[6-(5-Amino-pyrazin-2-yl)-pyridin-3-yl]-1-cyclopropyl-ethyl}-[1,2,4]oxadiazol-5-yl)-pyrazol-1-yl]-2-methyl-propan-2-ol]	990	280
